Measured values from publication PMC4770311, “Discovery and Characterization of GSK2801, a Selective Chemical Probe for the Bromodomains BAZ2A and BAZ2B” (Journal of Medicinal Chemistry, 2015).

What was measured:
BRD4 = tested on: BRD4; design: method as in PMID 21804994, PMID 22136404; settings: reported activity; read-out: TR-FRET assay: BRD4; cited from earlier work
BRD2 = tested on: BRD2; design: method as in PMID 21804994, PMID 22136404; settings: reported activity; read-out: TR-FRET assay: BRD2; cited from earlier work
BAZ2A = target: T1, BAZ2A (Homo sapiens, UniProt Q9UIF9); test: AlphaScreen assay BAZ2A; assay type: binding; settings: average of three replicates ± SEM
T1 construct: Recombinant BAZ2A and BAZ2B bromodomains were expressed in; made in house; host or cells: E. coli
T1 sequence (Q9UIF9 1793-1897 limits assumed): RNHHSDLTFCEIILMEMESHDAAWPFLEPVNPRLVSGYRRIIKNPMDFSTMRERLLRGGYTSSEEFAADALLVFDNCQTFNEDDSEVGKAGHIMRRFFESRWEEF
Description: AlphaScreen: AlphaScreen was performed as described previously 10, with minor modifications from the manufacturers protocol (PerkinElmer, USA). Briefly, all reagents were diluted in the recommended buffer (50 mM HEPES, 100 mM NaCl, 0.1% BSA; pH = 7.4) supplemented with 0.05% CHAPS and allowed to equilibrate to room temperature prior to […]
Plates were sealed and incubated at room temperature for 30 min. 4 μL of streptavidin-coated donor beads (10ug/mL final) and 4 μL of nickel chelate acceptor beads (10 μg/ml final) were then added under low light conditions. Plates were foil sealed to protect from light, incubated at room temperature for 60 min and read on a PHERAstar FS plate reader (BMG Labtech, Germany) using an AlphaScreen 680 excitation/570 emission filter set.
Fragments were dissolved in ethylene glycol to overcome sensitivity of the bromodomain assay to DMSO and allow compounds to be screened at mM concentrations. IC50 […]
measurements were taken over a 12 point 1:2 serial dilution of compound. IC50s were calculated in GraphPad Prism 5 (GraphPad Software, USA). […]

CC(=O)c1cc(-c2ccccn2)c2ccccn12 [Compound 1]
IC50 (BRD4): 2 µM | IC50 (BRD2): 2 µM | IC50 (BAZ2A): 1.5 ± 0.06 µM
